ChEMBL document CHEMBL2440076, “New triarylpyrazoles as broad-spectrum anticancer agents: design, synthesis, and biological evaluation” (Eur J Med Chem, 2013)

Tests used:
T47D = test: Growth inhibition of human T47D cells assessed as cell growth at 10 uM after 48 hrs by sulforhodamine B assay; format: functional; settings: read-out: Activity
MDA-MB-468 = test: Growth inhibition of human MDA-MB-468 cells assessed as cell growth at 10 uM after 48 hrs by sulforhodamine B assay; format: functional; settings: MDA-MB-468, 48 h, read-out: Activity
[1] = Growth inhibition of human Hs 578T cells assessed as cell growth at 10 uM after 48 hrs by sulforhodamine B assay; format: functional; settings: read-out: Activity
TK-10 = test: Growth inhibition of human TK10 cells assessed as cell growth at 10 uM after 48 hrs by sulforhodamine B assay; format: functional; settings: TK-10, 48 h, read-out: Activity
KM12 = test: Growth inhibition of human KM12 cells after 48 hrs by sulforhodamine B assay; format: functional, cell-based; settings: KM12, 48 h; for CC50: read-out: LC50 (the source's name)
HCT-116 = test: Growth inhibition of human HCT116 cells after 48 hrs by sulforhodamine B assay; format: functional; settings: HCT-116, 48 h; for CC50: read-out: LC50 (the source's name)
HCT-15 [2] = test: Growth inhibition of human HCT15 cells after 48 hrs by sulforhodamine B assay; format: functional; settings: HCT-15, 48 h
NCI-H23 = test: Growth inhibition of human NCI-H23 cells after 48 hrs by sulforhodamine B assay; format: functional; settings: NCI-H23, 48 h
SR = test: Growth inhibition of human SR cells after 48 hrs by sulforhodamine B assay; format: functional; settings: for CC50: read-out: LC50 (the source's name)
MOLT-4 [3] = test: Growth inhibition of human MOLT4 cells after 48 hrs by sulforhodamine B assay; format: functional; settings: MOLT-4, 48 h; for CC50: read-out: LC50 (the source's name)
OVCAR-3 = test: Growth inhibition of human OVCAR3 cells assessed as cell growth at 10 uM after 48 hrs by sulforhodamine B assay; format: functional; settings: OVCAR-3, 48 h, read-out: Activity
IGROV-1 = test: Growth inhibition of human IGROV1 cells assessed as cell growth at 10 uM after 48 hrs by sulforhodamine B assay; format: functional; settings: IGROV-1, 48 h, read-out: Activity
SK-MEL-5 [4] = test: Growth inhibition of human SK-MEL-5 cells assessed as cell growth at 10 uM after 48 hrs by sulforhodamine B assay; format: functional; settings: SK-MEL-5, 48 h, read-out: Activity
MDA-MB-435 = test: Growth inhibition of human MDA-MB-435 cells assessed as cell growth at 10 uM after 48 hrs by sulforhodamine B assay; format: functional; settings: MDA-MB-435, 48 h, read-out: Activity
LOX IMVI = test: Growth inhibition of human LOXIMVI cells assessed as cell growth at 10 uM after 48 hrs by sulforhodamine B assay; format: functional; settings: read-out: Activity
SF-539 = test: Growth inhibition of human SF539 cells assessed as cell growth at 10 uM after 48 hrs by sulforhodamine B assay; format: functional; settings: SF-539, 48 h, read-out: Activity
SF-268 = test: Growth inhibition of human SF268 cells assessed as cell growth at 10 uM after 48 hrs by sulforhodamine B assay; format: functional; settings: SF-268, 48 h, read-out: Activity
HCT-15 [5] = test: Growth inhibition of human HCT15 cells assessed as cell growth at 10 uM after 48 hrs by sulforhodamine B assay; format: functional; settings: HCT-15, 48 h, read-out: Activity
NCI-H460 = test: Growth inhibition of human NCI-H460 cells assessed as cell growth at 10 uM after 48 hrs by sulforhodamine B assay; format: functional; settings: NCI-H460, 48 h, read-out: Activity
NCI-H322M = test: Growth inhibition of human NCI-H322M cells assessed as cell growth at 10 uM after 48 hrs by sulforhodamine B assay; format: functional; settings: read-out: Activity
DU-145 = test: Growth inhibition of human DU145 cells after 48 hrs by sulforhodamine B assay; format: functional; settings: DU-145, 48 h
UO-31 = test: Growth inhibition of human UO31 cells after 48 hrs by sulforhodamine B assay; format: functional; settings: UO-31, 48 h; for CC50: read-out: LC50 (the source's name)
PC-3 = test: Growth inhibition of human PC3 cells after 48 hrs by sulforhodamine B assay; format: functional, cell-based; settings: PC-3, 48 h; for CC50: read-out: LC50 (the source's name)
RXF 393 = test: Growth inhibition of human RXF393 cells after 48 hrs by sulforhodamine B assay; format: functional; settings: RXF 393, 48 h
SN12C = test: Growth inhibition of human SN12C cells after 48 hrs by sulforhodamine B assay; format: functional; settings: for CC50: read-out: LC50 (the source's name)
OVCAR-5 = test: Growth inhibition of human OVCAR5 cells after 48 hrs by sulforhodamine B assay; format: functional; settings: OVCAR-5, 48 h
OVCAR-4 = test: Growth inhibition of human OVCAR4 cells after 48 hrs by sulforhodamine B assay; format: functional; settings: OVCAR-4, 48 h
SK-MEL-5 [6] = test: Growth inhibition of human SK-MEL-5 cells after 48 hrs by sulforhodamine B assay; format: functional; settings: SK-MEL-5, 48 h
UACC-257 = test: Growth inhibition of human UACC257 cells after 48 hrs by sulforhodamine B assay; format: functional; settings: UACC-257, 48 h; for CC50: read-out: LC50 (the source's name)
M14 = test: Growth inhibition of human M14 cells after 48 hrs by sulforhodamine B assay; format: functional; settings: M14, 48 h
SNB-19 = test: Growth inhibition of human SNB19 cells after 48 hrs by sulforhodamine B assay; format: functional; settings: SNB-19, 48 h
RPMI-8226 = test: Growth inhibition of human RPMI8226 cells assessed as cell growth at 10 uM after 48 hrs by sulforhodamine B assay; format: functional; settings: RPMI-8226, 48 h, read-out: Activity
MOLT-4 [7] = test: Growth inhibition of human MOLT4 cells assessed as cell growth at 10 uM after 48 hrs by sulforhodamine B assay; format: functional; settings: MOLT-4, 48 h, read-out: Activity
CCRF-CEM = test: Growth inhibition of human CCRF-CEM cells assessed as cell growth at 10 uM after 48 hrs by sulforhodamine B assay; format: functional; settings: read-out: Activity

Structure (SMILES): COc1cc(-c2nn(-c3cccc(NC(=O)c4ccc(Cl)c(C(F)(F)F)c4)c3)cc2-c2ccncc2)ccc1Cl
- growth at 10 µM (T47D): 26.2%
- growth at 10 µM (MDA-MB-468): 54.4%
- growth at 10 µM [1]: 34.7%
- growth at 10 µM (TK-10): 69.5%
- GI50 (KM12): 2.06 µM
- TGI (KM12): > 32.5 µM
- CC50 (KM12): > 32.5 µM
- GI50 (HCT-116): 2.49 µM
- TGI (HCT-116): > 32.5 µM
- CC50 (HCT-116): > 32.5 µM
- GI50 (HCT-15 [2]): 3.25 µM
- LC50 (HCT-15 [2]): > 32.5 µM
- TGI (HCT-15 [2]): > 32.5 µM
- GI50 (NCI-H23): 5.39 µM
- LC50 (NCI-H23): > 32.5 µM
- TGI (NCI-H23): > 32.5 µM
- GI50 (SR): 0.848 µM
- TGI (SR): > 32.5 µM
- CC50 (SR): > 32.5 µM
- GI50 (MOLT-4 [3]): 5.24 µM
- TGI (MOLT-4 [3]): > 32.5 µM
- CC50 (MOLT-4 [3]): > 32.5 µM
- growth at 10 µM (OVCAR-3): 19.5%
- growth at 10 µM (IGROV-1): 48.9%
- growth at 10 µM (SK-MEL-5 [4]): 17.5%
- growth at 10 µM (MDA-MB-435): -26.8%
- growth at 10 µM (LOX IMVI): 32.2%
- growth at 10 µM (SF-539): 33%
- growth at 10 µM (SF-268): 46.7%
- growth at 10 µM (HCT-15 [5]): 51.7%
- growth at 10 µM (NCI-H460): 25.4%
- growth at 10 µM (NCI-H322M): 84.9%
- GI50 (DU-145): 6.39 µM
- LC50 (DU-145): > 32.5 µM
- TGI (DU-145): > 32.5 µM
- GI50 (UO-31): 0.267 µM
- TGI (UO-31): > 32.5 µM
- CC50 (UO-31): > 32.5 µM
- GI50 (PC-3): 1.29 µM
- IC50 (PC-3): 1.29 µM
- TGI (PC-3): > 32.5 µM
- CC50 (PC-3): > 32.5 µM
- GI50 (RXF 393): 1.76 µM
- LC50 (concentration killing 50% of cells) (RXF 393): > 32.5 µM
- TGI (RXF 393): 18.7 µM
- GI50 (SN12C): 11.2 µM
- TGI (SN12C): > 32.5 µM
- CC50 (SN12C): > 32.5 µM
- GI50 (OVCAR-5): > 32.5 µM
- LC50 (concentration killing 50% of cells) (OVCAR-5): > 32.5 µM
- TGI (OVCAR-5): > 32.5 µM
- GI50 (OVCAR-4): 8.04 µM
- LC50 (concentration killing 50% of cells) (OVCAR-4): > 32.5 µM
- TGI (OVCAR-4): > 32.5 µM
- GI50 (SK-MEL-5 [6]): 1.38 µM
- LC50 (concentration killing 50% of cells) (SK-MEL-5 [6]): 31.8 µM
- TGI (SK-MEL-5 [6]): 6.87 µM
- GI50 (UACC-257): 7.13 µM
- TGI (UACC-257): > 32.5 µM
- CC50 (UACC-257): > 32.5 µM
- GI50 (M14): 2.79 µM
- LC50 (concentration killing 50% of cells) (M14): > 32.5 µM
- TGI (M14): > 32.5 µM
- GI50 (SNB-19): 8.68 µM
- LC50 (concentration killing 50% of cells) (SNB-19): > 32.5 µM
- TGI (SNB-19): > 32.5 µM
- growth at 10 µM (RPMI-8226): 25.4%
- growth at 10 µM (MOLT-4 [7]): 20.3%
- growth at 10 µM (CCRF-CEM): 12.4%

Structure (SMILES): O=C(Nc1cccc(-n2cc(-c3ccncc3)c(-c3ccc(Cl)c(O)c3)n2)c1)Nc1ccc(Cl)c(C(F)(F)F)c1
- growth at 10 µM (T47D): -7.12%
- growth at 10 µM (MDA-MB-468): -49.5%
- growth at 10 µM [1]: -7.39%
- growth at 10 µM (TK-10): -1.62%
- GI50 (KM12): 1 µM
- TGI (KM12): 3.51 µM
- CC50 (KM12): 17.4 µM
- GI50 (HCT-116): 0.998 µM
- TGI (HCT-116): 3.94 µM
- CC50 (HCT-116): > 32.5 µM
- GI50 (HCT-15 [2]): 0.867 µM
- LC50 (HCT-15 [2]): > 32.5 µM
- TGI (HCT-15 [2]): 13.8 µM
- GI50 (NCI-H23): 0.951 µM
- LC50 (NCI-H23): 26.1 µM
- TGI (NCI-H23): 3.33 µM
- GI50 (SR): 0.715 µM
- TGI (SR): 2.52 µM
- CC50 (SR): > 32.5 µM
- GI50 (MOLT-4 [3]): 0.777 µM
- TGI (MOLT-4 [3]): 2.93 µM
- CC50 (MOLT-4 [3]): > 32.5 µM
- growth at 10 µM (OVCAR-3): -43%
- growth at 10 µM (IGROV-1): 10.4%
- growth at 10 µM (SK-MEL-5 [4]): -100%
- growth at 10 µM (MDA-MB-435): -31.3%
- growth at 10 µM (LOX IMVI): -75.8%
- growth at 10 µM (SF-539): -26.1%
- growth at 10 µM (SF-268): -34.5%
- growth at 10 µM (HCT-15 [5]): 1.04%
- growth at 10 µM (NCI-H460): -43.7%
- growth at 10 µM (NCI-H322M): 24.7%
- GI50 (DU-145): 1.13 µM
- LC50 (DU-145): 25.1 µM
- TGI (DU-145): 4.63 µM
- GI50 (UO-31): 0.777 µM
- TGI (UO-31): 3.01 µM
- CC50 (UO-31): > 32.5 µM
- IC50 (PC-3): 0.59 µM
- CC50 (PC-3): > 32.5 µM
- GI50 (RXF 393): 0.508 µM
- LC50 (concentration killing 50% of cells) (RXF 393): > 32.5 µM
- TGI (RXF 393): 1.67 µM
- GI50 (SN12C): 1.12 µM
- TGI (SN12C): 17.1 µM
- CC50 (SN12C): > 32.5 µM
- GI50 (OVCAR-5): 1.57 µM
- LC50 (concentration killing 50% of cells) (OVCAR-5): > 32.5 µM
- TGI (OVCAR-5): 16.2 µM
- GI50 (OVCAR-4): 1.2 µM
- LC50 (concentration killing 50% of cells) (OVCAR-4): > 32.5 µM
- TGI (OVCAR-4): > 32.5 µM
- GI50 (SK-MEL-5 [6]): 0.55 µM
- LC50 (concentration killing 50% of cells) (SK-MEL-5 [6]): 2.13 µM
- TGI (SK-MEL-5 [6]): 1.08 µM
- GI50 (UACC-257): 0.768 µM
- TGI (UACC-257): 2.1 µM
- CC50 (UACC-257): 8.39 µM
- GI50 (M14): 0.886 µM
- LC50 (concentration killing 50% of cells) (M14): > 32.5 µM
- TGI (M14): 2.77 µM
- GI50 (SNB-19): 1.12 µM
- LC50 (concentration killing 50% of cells) (SNB-19): > 32.5 µM
- TGI (SNB-19): 4.86 µM
- growth at 10 µM (RPMI-8226): -10.5%
- growth at 10 µM (MOLT-4 [7]): -22.1%
- growth at 10 µM (CCRF-CEM): -13.8%
